This experiment concerns the target ATR/ATRIP (human) (Homo sapiens, UniProt Q13535). Put plainly: HTRF kinase assay, GST-cMyc-p53 Ser15 phosphorylation. It counts as biochemical. In general terms: TR-FRET usually uses a lanthanide donor and a delayed reading to cut background.

The results in this text go back to PMC6101970 (Oncogene, 2018).

Chain of ATR/ATRIP (human) (Q13535 whole entry): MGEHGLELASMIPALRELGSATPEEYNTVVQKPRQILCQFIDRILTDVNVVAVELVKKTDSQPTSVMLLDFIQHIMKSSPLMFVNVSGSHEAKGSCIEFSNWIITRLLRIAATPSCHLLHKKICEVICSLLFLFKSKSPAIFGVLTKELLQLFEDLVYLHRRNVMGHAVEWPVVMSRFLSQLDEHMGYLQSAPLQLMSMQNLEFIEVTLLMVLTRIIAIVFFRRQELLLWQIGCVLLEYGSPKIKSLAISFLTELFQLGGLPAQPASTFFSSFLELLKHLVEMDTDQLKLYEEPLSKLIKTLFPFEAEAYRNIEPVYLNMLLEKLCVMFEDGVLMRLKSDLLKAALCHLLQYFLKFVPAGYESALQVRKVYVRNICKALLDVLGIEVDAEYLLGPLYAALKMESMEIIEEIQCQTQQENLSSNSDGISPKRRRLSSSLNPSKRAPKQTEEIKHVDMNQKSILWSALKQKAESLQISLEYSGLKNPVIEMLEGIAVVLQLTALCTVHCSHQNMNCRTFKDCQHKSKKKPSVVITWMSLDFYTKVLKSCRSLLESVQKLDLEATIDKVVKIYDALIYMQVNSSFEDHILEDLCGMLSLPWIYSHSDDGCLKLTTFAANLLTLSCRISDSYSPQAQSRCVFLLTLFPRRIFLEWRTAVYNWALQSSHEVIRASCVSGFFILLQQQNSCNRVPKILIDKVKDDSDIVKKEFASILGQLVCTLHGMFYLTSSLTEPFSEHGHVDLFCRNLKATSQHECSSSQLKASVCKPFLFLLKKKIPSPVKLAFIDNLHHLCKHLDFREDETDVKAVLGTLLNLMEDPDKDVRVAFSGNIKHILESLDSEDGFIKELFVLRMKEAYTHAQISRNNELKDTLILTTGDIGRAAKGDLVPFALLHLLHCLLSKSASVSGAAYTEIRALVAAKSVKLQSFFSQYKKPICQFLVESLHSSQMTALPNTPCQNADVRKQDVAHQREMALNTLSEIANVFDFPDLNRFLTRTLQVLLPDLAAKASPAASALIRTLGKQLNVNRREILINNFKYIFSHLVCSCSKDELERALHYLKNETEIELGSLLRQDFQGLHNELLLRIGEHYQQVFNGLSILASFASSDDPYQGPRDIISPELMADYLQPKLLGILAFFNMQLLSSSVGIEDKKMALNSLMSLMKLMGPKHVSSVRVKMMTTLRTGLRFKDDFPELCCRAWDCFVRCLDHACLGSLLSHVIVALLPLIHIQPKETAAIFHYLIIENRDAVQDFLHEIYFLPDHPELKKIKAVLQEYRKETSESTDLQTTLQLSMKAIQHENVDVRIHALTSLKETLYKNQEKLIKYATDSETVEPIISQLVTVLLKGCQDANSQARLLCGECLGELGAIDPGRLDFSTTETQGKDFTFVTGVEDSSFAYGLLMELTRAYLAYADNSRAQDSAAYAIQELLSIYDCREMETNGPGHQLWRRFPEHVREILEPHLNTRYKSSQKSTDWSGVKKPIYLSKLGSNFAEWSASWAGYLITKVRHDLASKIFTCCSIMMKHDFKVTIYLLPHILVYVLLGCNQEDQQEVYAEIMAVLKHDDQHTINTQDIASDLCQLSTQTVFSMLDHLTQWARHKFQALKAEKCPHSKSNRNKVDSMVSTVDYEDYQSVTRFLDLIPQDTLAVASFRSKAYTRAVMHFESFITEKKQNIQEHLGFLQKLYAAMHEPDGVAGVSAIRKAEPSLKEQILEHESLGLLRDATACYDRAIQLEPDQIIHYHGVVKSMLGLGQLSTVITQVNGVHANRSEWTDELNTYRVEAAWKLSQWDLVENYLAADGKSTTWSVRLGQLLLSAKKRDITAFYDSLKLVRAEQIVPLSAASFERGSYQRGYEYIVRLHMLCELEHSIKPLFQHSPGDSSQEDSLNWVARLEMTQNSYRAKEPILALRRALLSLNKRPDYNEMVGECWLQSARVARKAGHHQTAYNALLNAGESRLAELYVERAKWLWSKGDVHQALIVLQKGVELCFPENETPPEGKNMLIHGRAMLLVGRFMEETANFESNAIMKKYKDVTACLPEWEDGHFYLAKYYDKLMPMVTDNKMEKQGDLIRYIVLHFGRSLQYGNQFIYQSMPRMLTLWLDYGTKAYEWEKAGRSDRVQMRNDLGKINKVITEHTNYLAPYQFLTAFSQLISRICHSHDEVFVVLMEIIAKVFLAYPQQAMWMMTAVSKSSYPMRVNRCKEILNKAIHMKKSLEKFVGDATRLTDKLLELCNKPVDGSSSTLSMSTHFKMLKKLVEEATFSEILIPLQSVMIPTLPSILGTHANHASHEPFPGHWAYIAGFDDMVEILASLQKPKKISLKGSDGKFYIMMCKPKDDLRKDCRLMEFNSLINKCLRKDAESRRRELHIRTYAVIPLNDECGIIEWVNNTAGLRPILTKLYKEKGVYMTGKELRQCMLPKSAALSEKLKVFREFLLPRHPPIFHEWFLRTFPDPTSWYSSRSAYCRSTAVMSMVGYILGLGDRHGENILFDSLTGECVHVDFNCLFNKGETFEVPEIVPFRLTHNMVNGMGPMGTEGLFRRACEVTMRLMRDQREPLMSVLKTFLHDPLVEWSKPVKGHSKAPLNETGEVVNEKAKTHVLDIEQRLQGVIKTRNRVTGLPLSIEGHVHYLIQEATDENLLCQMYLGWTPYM
Chain of ATR/ATRIP (human) (Q8WXE1 whole entry partner): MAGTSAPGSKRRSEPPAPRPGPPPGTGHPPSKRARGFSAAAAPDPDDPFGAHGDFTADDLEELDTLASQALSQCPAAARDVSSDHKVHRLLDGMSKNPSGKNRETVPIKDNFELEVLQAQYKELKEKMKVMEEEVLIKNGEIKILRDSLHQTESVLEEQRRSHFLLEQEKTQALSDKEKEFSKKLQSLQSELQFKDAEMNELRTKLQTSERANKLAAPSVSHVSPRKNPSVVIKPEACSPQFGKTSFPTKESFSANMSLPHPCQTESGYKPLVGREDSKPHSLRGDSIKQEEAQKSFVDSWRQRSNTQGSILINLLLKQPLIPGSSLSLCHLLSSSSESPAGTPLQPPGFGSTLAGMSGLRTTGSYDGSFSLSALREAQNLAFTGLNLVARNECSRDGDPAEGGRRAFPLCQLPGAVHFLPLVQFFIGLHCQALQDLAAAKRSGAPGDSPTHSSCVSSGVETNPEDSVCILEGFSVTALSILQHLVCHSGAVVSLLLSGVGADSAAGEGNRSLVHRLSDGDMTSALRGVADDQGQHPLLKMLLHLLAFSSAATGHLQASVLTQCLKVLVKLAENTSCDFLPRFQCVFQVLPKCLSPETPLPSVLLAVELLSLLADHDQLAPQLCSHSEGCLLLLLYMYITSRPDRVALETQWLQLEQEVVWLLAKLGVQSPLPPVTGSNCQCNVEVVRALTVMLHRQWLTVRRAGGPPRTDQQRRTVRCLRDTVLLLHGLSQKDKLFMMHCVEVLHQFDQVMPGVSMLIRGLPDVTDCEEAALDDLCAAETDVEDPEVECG

For the compound `COc1nnc2ccc(N3CCC(c4ccc(OCCN5CCN(C)C(=O)[C@H]5C)cc4)CC3)nn12` [AZD5153], the IC50 was greater than 10 µM.
For the compound `Cc1sc2c(c1C)C(c1ccc(Cl)cc1)=N[C@@H](CC(=O)OC(C)(C)C)c1nnc(C)n1-2` [JQ1], the half-maximal inhibitory concentration (IC50) was greater than 10 µM.

By IC50 is commonly meant the midpoint of a concentration-inhibition curve. Lower therefore signals greater potency.
